Source: US20250376484A1, “PRMT5 INHIBITORS AND USES THEREOF” (Gilead Sciences, Inc., priority 2024, published 2025)

Legend:
[1] = system: HCT116 MTAP-deleted cell lines; assay: Cell viability assay (CellTitre-Glo), HCT116 MTAP-deleted; format: cell-based; conditions: for CC50: Homo sapiens, HCT-116, 168 h, HCT116 MTAP-deleted cells, 7 days of treatment, CTG luminescence, read-out: MTAP^del HCT116 CC50; for Selectivity: WT HCT116 CC50 versus MTAP^del HCT116 CC50
Experimental: (§1) Control compounds were analyzed in parallel each time for quality control.
(§2) In Brief, on Day-1, a serial dilution of stock compounds in DMSO was performed using BioMek liquid handlers and dispensed using Echo acoustic dispenser into 384 well plates. Both tool compounds and sample compounds were spotted in the same plate for a dose response of PRMT5 inhibitors. Compound plates were stored as frozen until the cells were ready for seeding.
(§3) On Day 0, 100 HCT WT or HCT116 MTAP-deleted cells were seeded in compound-containing 384 well plates (50 μl per well) in RPMI 1640 media supplemented with 10% heat inactivated fetal bovine serum, Glutamax and penicillin streptomycin using EL460 liquid dispenser 5 μl cassette (BioTek, part no. 7170011). After equilibrating the plate in room temperature, the cells were incubated for 7 days inside the sealed incubator set at 37° C. with […] and 5% CO2.
(§4) On Day 7, the viability of cells was measured using a CTG assay kit (CellTitre-Glo; Promega cat no. G7573). Shortly, 40 μl per well of luminescent cell viability assay reagent were dispensed using EL460 liquid dispenser 5 μl cassette. CTG luminescence signal was measured using an EnVision plate reader (PerkinElmer) in accordance with manufacturer's instruction. The CC50 values for each compound after 7 days of treatment were calculated using 4 parameter non-linear logistical curve fit.

[2] = Cell viability assay (CellTitre-Glo), HCT116 WT; format: cell-based; conditions: human; HCT116 WT cells, 7 days of treatment, CTG luminescence
Experimental: as §1, §2, §3, §4

[3] = MDR1/BCRP assay: permeability in cPgp-KO-MDCK-WT cells; format: in vitro ADME; conditions: dog, test compounds at 1 μM, 2-hour time point, pH 7.4
Experimental: (§5) cPgp-KO-MDCK-WT, cPgp-KO-MDR1-KI, and cPgp-KO—BCRP—KI cells (all from Sigma) were cultured in Dulbecco's Modification of Eagle's Medium (DMEM) with 4.5 g/L glucose, sodium pyruvate, and GlutaMAX (Gibco) supplemented with 1% Pen/Strep and 10% fetal bovine serum. The cells were maintained in an incubator at 37° C., 90% humidity, and 5% CO2 until reaching confluence over 5 days in 96-well transwell plates. Experiments were conducted using an HBSS donor buffer (Invitrogen) containing 10 mM HEPES and 15 mM glucose, adjusted to pH 7.4. The receiver well contained HBSS buffer supplemented with 1% BSA, 10 mM HEPES, and 15 mM glucose, and the pH was adjusted to 7.4. TEER values were measured to assess membrane integrity after an initial equilibration with BSA-free transport buffer for 15 minutes. The experiment was started by adding dosing solutions containing test compounds at 1 μM. Cells were dosed on the apical (A) side or basolateral (B) side at 100 μl and 200 μl, respectively, to determine forward (A to B) and reverse (B to A) permeability. At the 2-hour time point, 50 μl samples were collected from the receiver compartment. Each compound was tested in 2 separate replicate wells for each condition. All samples were immediately collected into plates, and 50 μL of acetonitrile was added. Subsequently, 350 μl of 30:70 methanol: acetonitrile containing internal standard was added to precipitate proteins and stabilize the test compounds. To test for non-specific binding and compound instability, the total amount of the drug was quantified at the end of the experiment and compared to the material present in the original dosing solution as a percentage of the recovery. All samples were analyzed by LC-MS/MS using electrospray ionization.
(§6) The apparent permeability, Papp, and % recovery were calculated as follows: […]

[4] = molecular target: T1, BCRP (Homo sapiens, UniProt Q9UNQ0); assay: MDR1/BCRP assay: efflux ratio in cPgp-KO-BCRP-KI cells; format: in vitro ADME; conditions: dog, efflux ratio Papp (B-to-A)/Papp (A-to-B), 2-hour time point, read-out: cPgp-KO-BCRP-KI (ER)
T1 construct: host or cells: MDCK cells with canine Pgp knocked out and BCRP knocked in (cPgp-KO-BCRP-KI)
T1 sequence (Q9UNQ0 1-655): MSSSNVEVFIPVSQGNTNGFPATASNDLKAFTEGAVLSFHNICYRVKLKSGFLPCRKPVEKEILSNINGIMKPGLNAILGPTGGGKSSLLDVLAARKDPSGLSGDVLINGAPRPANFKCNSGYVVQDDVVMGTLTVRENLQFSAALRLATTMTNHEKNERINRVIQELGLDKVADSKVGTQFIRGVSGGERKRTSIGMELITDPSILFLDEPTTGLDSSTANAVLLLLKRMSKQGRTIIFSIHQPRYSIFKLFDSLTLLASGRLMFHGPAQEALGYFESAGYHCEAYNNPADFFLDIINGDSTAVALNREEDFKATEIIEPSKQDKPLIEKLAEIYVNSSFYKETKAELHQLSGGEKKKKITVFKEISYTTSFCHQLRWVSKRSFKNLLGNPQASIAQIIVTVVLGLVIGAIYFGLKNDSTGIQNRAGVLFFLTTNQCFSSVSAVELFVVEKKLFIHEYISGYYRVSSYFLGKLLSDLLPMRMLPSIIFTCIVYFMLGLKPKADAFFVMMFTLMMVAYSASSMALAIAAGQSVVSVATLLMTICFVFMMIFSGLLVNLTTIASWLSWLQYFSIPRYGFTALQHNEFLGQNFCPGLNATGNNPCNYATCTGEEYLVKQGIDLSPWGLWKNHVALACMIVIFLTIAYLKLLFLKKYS
Experimental: as §5, §6

[5] = molecular target: T2, MDR1 (Homo sapiens, UniProt P08183); assay: MDR1/BCRP assay: efflux ratio in cPgp-KO-MDR1-KI cells; format: in vitro ADME; conditions: dog, MDCK-MDR1, efflux ratio Papp (B-to-A)/Papp (A-to-B), 2-hour time point, read-out: cPgp-KO-MDR1-KI (ER)
T2 construct: host or cells: MDCK cells with canine Pgp knocked out and MDR1 knocked in (cPgp-KO-MDR1-KI)
T2 sequence (P08183 whole entry): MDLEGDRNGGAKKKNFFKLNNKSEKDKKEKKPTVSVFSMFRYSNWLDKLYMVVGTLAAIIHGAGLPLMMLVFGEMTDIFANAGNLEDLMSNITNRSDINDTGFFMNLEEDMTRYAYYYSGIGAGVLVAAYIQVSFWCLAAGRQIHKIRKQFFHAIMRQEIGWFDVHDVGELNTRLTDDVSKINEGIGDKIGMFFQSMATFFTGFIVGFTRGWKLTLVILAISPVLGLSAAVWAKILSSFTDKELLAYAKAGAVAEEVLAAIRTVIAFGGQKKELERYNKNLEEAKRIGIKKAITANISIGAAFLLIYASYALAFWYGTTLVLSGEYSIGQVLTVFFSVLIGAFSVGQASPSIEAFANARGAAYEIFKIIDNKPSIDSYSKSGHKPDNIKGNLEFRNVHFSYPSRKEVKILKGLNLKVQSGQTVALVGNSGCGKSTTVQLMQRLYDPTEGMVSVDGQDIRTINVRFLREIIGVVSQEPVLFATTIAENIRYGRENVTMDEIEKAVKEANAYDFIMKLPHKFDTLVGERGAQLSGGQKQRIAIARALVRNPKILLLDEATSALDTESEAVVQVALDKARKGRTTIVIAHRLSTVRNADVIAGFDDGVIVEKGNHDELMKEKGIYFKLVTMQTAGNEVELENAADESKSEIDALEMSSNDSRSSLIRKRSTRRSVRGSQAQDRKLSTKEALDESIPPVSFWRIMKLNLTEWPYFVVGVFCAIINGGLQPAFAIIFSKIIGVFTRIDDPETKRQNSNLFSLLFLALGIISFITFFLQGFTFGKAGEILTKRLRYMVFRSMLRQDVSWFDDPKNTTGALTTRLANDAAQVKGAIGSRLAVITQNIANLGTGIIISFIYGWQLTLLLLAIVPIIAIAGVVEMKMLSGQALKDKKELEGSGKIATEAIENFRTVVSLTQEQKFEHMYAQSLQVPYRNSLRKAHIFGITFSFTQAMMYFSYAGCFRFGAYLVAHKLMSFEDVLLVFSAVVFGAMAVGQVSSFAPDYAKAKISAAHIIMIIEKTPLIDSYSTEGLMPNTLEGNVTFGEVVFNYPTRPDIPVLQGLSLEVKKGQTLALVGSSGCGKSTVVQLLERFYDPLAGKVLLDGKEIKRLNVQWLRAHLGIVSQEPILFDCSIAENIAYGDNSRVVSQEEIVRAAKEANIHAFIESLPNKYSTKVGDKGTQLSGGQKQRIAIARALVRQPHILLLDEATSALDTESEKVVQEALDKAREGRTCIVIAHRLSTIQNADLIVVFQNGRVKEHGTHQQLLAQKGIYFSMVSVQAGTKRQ
Experimental: as §5, §6

| SMILES | CC50 [1] | Selectivity [1] | CC50 at 7 days [2] | Papp A→B at 2 h, 1 µM [3] | efflux ratio at 2 h, 1 μM [4] | efflux ratio at 2 h, 1 μM [5] |
| --- | --- | --- | --- | --- | --- | --- |
| Cn1ncc2c(NC(=O)C(=O)N3CCC[C@@H]4Oc5cc(OC(F)F)c(F)cc5[C@@H]43)cnc(N)c21 (relative stereo) [Example Ca-9, cis-N-(7-amino-1-methyl-1H-pyrazolo[3,4-c]pyridin-4-yl)-2-(7-(difluoromethoxy)-8-fluoro-3,4,4a,9b-tetrahydrobenzofuro[3,2-b]pyridin-1(2H)-yl)-2-oxoacetamide] | 34 nM | 119 | 4100 nM | 15.3 ×10⁻⁶ cm/s | 1.6 | 1.8 |
| Cn1ncc2c(NC(=O)C(=O)N3CCC[C@@H]4Oc5cc(C(F)(F)F)cc(F)c5[C@@H]43)cnc(N)c21 [Example Ca-1, N-(7-amino-1-methyl-1H-pyrazolo[3,4-c]pyridin-4-yl)-2-((4aS,9bS)-9-fluoro-7-(trifluoromethyl)-3,4,4a,9b-tetrahydrobenzofuro[3,2-b]pyridin-1(2H)-yl)-2-oxoacetamide] | 10 nM | 103 | 1030 nM | 12 ×10⁻⁶ cm/s | 0.7 | 1 |
| Cn1ncc2c(NC(=O)C(=O)N3CCC[C@@H]4Oc5cc(C(F)(F)F)ccc5[C@@H]43)cnc(N)c21 [Example Ca-2, N-(7-amino-1-methyl-11H-pyrazolo[3,4-c]pyridin-4-yl)-2-oxo-2-((4aS,9bS)-7-(trifluoromethyl)-3,4,4a,9b-tetrahydrobenzofuro[3,2-b]pyridin-1(2H)-yl)acetamide] | 12 nM | 78 | 935 nM | 12.2 ×10⁻⁶ cm/s | 0.7 | 0.8 |
| C[C@H]1CN(C(=O)C(=O)Nc2cnc(N)c3c2cnn3C)[C@H]2c3ccc(C(F)(F)F)cc3C[C@H]2O1 [Example Ca-3, N-(7-amino-1-methyl-11H-pyrazolo[3,4-c]pyridin-4-yl)-2-((2S,4aS,9aR)-2-methyl-7-(trifluoromethyl)-2,3,9,9a-tetrahydroindeno[2,1-b][1,4]oxazin-4(4aH)-yl)-2-oxoacetamide] | 38 nM | 77 | 2940 nM | 12.6 ×10⁻⁶ cm/s | 0.7 | 1.1 |
| Cn1ncc2c(NC(=O)C(=O)N3CC[C@H]4C[C@@H]3c3ccc(OC(F)(F)F)cc3O4)cnc(N)c21 [Example Ca-4, N-(7-amino-1-methyl-1H-pyrazolo[3,4-c]pyridin-4-yl)-2-oxo-2-((2S,6R)-9-(trifluoromethoxy)-3,4-dihydro-2H-2,6-methanobenzo[b][1,5]oxazocin-5(6H)-yl)acetamide] | 31 nM | 102 | 3200 nM | 26 ×10⁻⁶ cm/s | 0.6 | 0.9 |
| Cn1ncc2c(NC(=O)C(=O)N3CC4(CC4)C[C@@H]4Oc5cc(C(F)(F)F)ccc5[C@@H]43)cnc(N)c21 [Example Ca-5, N-(7-amino-1-methyl-1H-pyrazolo[3,4-c]pyridin-4-yl)-2-oxo-2-((4aS,9bS)-7-(trifluoromethyl)-4a,9b-dihydro-2H-spiro[benzofuro[3,2-b]pyridine-3,1′-cyclopropan]-1(4H)-yl)acetamide] | 8 nM | 73 | 589 nM | 11.6 ×10⁻⁶ cm/s | 0.44 | 0.99 |
| Cn1ncc2c(NC(=O)C(=O)N3CCC[C@@H]4Oc5cc(OC(F)(F)F)cc(F)c5[C@@H]43)cnc(N)c21 [Example Ca-6, N-(7-amino-1-methyl-1H-pyrazolo[3,4-c]pyridin-4-yl)-2-((4aS,9bS)-9-fluoro-7-(trifluoromethoxy)-3,4,4a,9b-tetrahydrobenzofuro[3,2-b]pyridin-1(2H)-yl)-2-oxoacetamide] | 13 nM | 144 | 1880 nM | 9.3 ×10⁻⁶ cm/s | 2.6 | 0.9 |
| Cn1ncc2c(NC(=O)C(=O)N3CCC[C@@H]4Oc5cc(Cl)ccc5[C@@H]43)cnc(N)c21 [Example Ca-7, N-(7-amino-1-methyl-1H-pyrazolo[3,4-c]pyridin-4-yl)-2-((4aS,9bS)-7-chloro-3,4,4a,9b-tetrahydrobenzofuro[3,2-b]pyridin-1(2H)-yl)-2-oxoacetamide] | 16 nM | 108 | 1700 nM | 21.4 ×10⁻⁶ cm/s | 1.1 | – |
| [2H]C([2H])([2H])n1ncc2c(NC(=O)C(=O)N3CCC[C@@H]4Oc5cc(C(F)(F)F)cc(F)c5[C@@H]43)cnc(N)c21 [Example Cb-1, N-(7-amino-1-(methyl-d3)-1H-pyrazolo[3,4-c]pyridin-4-yl)-2-((4aS,9bS)-9-fluoro-7-(trifluoromethyl)-3,4,4a,9b-tetrahydrobenzofuro[3,2-b]pyridin-1(2H)-yl)-2-oxoacetamide] | 12 nM | 99 | 1240 nM | – | – | – |
| Nc1ncc(NC(=O)C(=O)N2CCC[C@@H]3Oc4cc(C(F)(F)F)ccc4[C@@H]32)c2c1COC2 [Example Cc-1, N-(4-amino-1,3-dihydrofuro[3,4-c]pyridin-7-yl)-2-oxo-2-((4aS,9bS)-7-(trifluoromethyl)-3,4,4a,9b-tetrahydrobenzofuro[3,2-b]pyridin-1(2H)-yl)acetamide] | 50 nM | 38 | 1940 nM | – | – | – |
| Nc1ncc(NC(=O)C(=O)N2CCC[C@@H]3Oc4cc(C(F)(F)F)cc(F)c4[C@@H]32)c2c1COC2 [Example Cc-2, N-(4-amino-1,3-dihydrofuro[3,4-c]pyridin-7-yl)-2-((4aS,9bS)-9-fluoro-7-(trifluoromethyl)-3,4,4a,9b-tetrahydrobenzofuro[3,2-b]pyridin-1(2H)-yl)-2-oxoacetamide] | 51 nM | 37 | 1910 nM | – | – | – |
